Experimental findings from patent US7692012B2, “Vanadium compounds as inhibitors of phosphatases” (Imperial College Innovations Limited, priority 2003, dated 2010) are described below.

Where two headings read alike, the source gives them in different places.

For series [1], the system named is PKB phosphorylation (pSer473) in NIH3T3 cells. Put plainly: Ly294002 dose dependence with and without bpV(pic). The following applies: NIH3T3, 10 μg/ml insulin, without bpV(pic). Type of series: cell-based. As to the method:
In order to find out whether bpV(pic) has an influence on Ly294002-dependent PKB inhibition we accomplished a dose response experiment applying concentrations from 0.01 up to 100 μM Ly294002 to two sets of quiescent fibroblasts and incubated for 20 min. One batch of cells were then further treated with 200 nM bpV(pic) (5 min) and all cells were finally stimulated with 10 μg/ml insulin for 15 min. Cell lysates were collected as described earlier. Calculations and graph were performed using GraphPad Prism.
(§1) All cell lysate samples were loaded on 10% SDS-PAGE and transferred to PVDF membranes for PKB analysis and nitrocellulose for phospho tyrosine detection. For PKB Western Blots membranes were blocked for 1 h with 5% milk powder in TBST followed by an incubation with anti Mass PKB antibody (1:1000) or anti phospho-PKB (Ser473) antibody (1:1000) in TBST for 2 h. Finally, membranes were exposed to a horseradish peroxidase-conjugated secondary antiserum (BIORAD) (1:1000) in 5% milk powder solution for 1 h. The Western Blots were developed with ECL™ solution (Amersham). In order to detect phosphorylated tyrosine residues nitrocellulose membranes were blocked for 1 h with 2.5% milk powder, first incubated with a specific anti phosphotyrosine antibody (4G10) (1:3000) for 1 h, and finally with horseradish peroxidase-conjugated secondary anti mouse antiserum. All PKB and Phospho-Tyrosine experiments were accomplished in three independent experiments and all membranes were re-probed using a specific tubulin antibody (1:1000). Density analysis of bands took place using the public domain NIH Image V1.62 program (developed at the U.S. National Institutes of Health and available on the Internet at http://rsb.info.nih.gov/nih-image/).

The target of another series is T1, MTM (Homo sapiens, UniProt Q13496).
T1 sequence (Q13496 1-603): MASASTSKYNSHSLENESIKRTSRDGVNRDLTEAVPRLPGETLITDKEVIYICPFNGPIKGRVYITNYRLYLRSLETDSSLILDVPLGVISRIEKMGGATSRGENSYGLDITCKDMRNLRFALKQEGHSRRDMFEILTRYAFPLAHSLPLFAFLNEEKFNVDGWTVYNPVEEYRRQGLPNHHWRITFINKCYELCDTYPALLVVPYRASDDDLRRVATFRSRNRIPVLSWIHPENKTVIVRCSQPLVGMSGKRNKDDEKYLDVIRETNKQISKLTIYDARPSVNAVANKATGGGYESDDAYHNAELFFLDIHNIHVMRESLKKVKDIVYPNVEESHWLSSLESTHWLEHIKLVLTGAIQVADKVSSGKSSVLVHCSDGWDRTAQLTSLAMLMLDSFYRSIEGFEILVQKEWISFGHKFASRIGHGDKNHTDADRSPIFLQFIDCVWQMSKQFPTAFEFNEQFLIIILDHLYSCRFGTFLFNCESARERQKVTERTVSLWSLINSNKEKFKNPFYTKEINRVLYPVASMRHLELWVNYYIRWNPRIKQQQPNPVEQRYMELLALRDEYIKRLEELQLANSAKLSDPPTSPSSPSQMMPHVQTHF
Put plainly: MTM IC50 (inositol phosphatase inhibition). The class given is biochemical.

For a further series, the target named is SopB (Salmonella typhimurium, UniProt O30916). Put plainly: biochemical. The class given is biochemical.
Another series deals with T2, PTP-β (Homo sapiens, UniProt P23467).
T2 construct: purchased Upstate Biotechnology
Put plainly: PTPase assay with pNPP as substrate. Type of series: biochemical. As for the experimental part: Protein tyrosine phosphatase (PTPase) assays were performed using the synthetic substrate p-nitrophenylphosphate (pNPP) and the phosphatases PTP-1B and PTP-β (Upstate Biotechnology). The standard assay conditions were 25 mM HEPES pH 7.2, 50 mM NaCl, 5 mM DTT, 2.5 mM EDTA, 100 μg/ml BSA, 1 mM pNPP (Sigma) and 4 unit PTP-1B and 10 unit PTP-β, respectively. The assay was started by adding the enzyme and was carried out for 15 min at 30 C in a preheated ELISA reader chamber. The linear increase of absorbance was monitored every 30 seconds at a wavelength of 410 nm.

For series [2], the target named is T3, PTEN (Homo sapiens, UniProt P60484).
T3 construct: GST (N); made in house; host or cells: Escherichia coli DH5 alpha
Put plainly: Malachite green phosphate release assay with PI(3,4,5)P3. The class given is biochemical. Conditions: for specificity of phosphatase inhibition: PTEN versus SopB, MTM, PTP; for PTEN inhibition, summary in words: comment below PTEN table; for IC50: head says published data, same values as the applicant's FIG. 1 study, read-out: PTEN Published data In vitro enzyme assay confirmed by in vivo data. As for the experimental part: The coding region of the DNA sequence of human PTEN was cloned into a pGEX-4T2 expression vector (Pharmacia). Protein expression was induced overnight in the Escherichia coli DH5[…] strain using 100 μM IPTG at 18 C. GST-fusion proteins were purified according to the manufacturer's manual using glutathione sepharose 4B (Pharmacia). Protein integrity and specificity were confirmed on a Western Blot using GST antibody (Novagen).
Enzyme activity of recombinant PTEN was measured with a malachite green dye based phosphate release assay (No 230, No 83). The standard assay conditions were 200 mM Tris pH 7.4, 50 ng/μl BSA, and 15 ng/μl PTEN. The synthetic lipid PI(3,4,5)P3dC16 (Cell Signals) was used as a substrate for PTEN. The lipid was dissolved in methanol/H2O and stored at −20 C. Prior to the use in these PIPase experiments, an appropriate amount of lipid was dried down and resuspended in 1% Octylglycoside (Sigma). After 10 min of sonication lipid samples were ready to be added to the enzyme assay. All assays were started by adding the enzyme into the pre-heated buffer solution, containing PI(3,4,5)P3dC16. Linear PIPase reactions were performed at 30 C for 30 min in an incubation chamber. In order to stop the enzyme reaction, 0.7 volume of colour reagent (2.3 mg/ml malachite green in 3.6 M HCl and 17 mM ammonium molybdate) was added to the enzyme solution. The mixture was allowed to develop for 20 min and the absorbance at 625 nm was measured. For all inhibitor studies inhibitor concentrations from 0.1 nM up to 500 nM were pre-incubated with PTEN and the enzyme assays were started by adding 150 μM sonicated lipid. To normalize the phosphate release a phosphate standard curve was used. All experiments were repeated in tripletts. Calculations for IC50 values were performed using GraphPad Prism.

Series [3] deals with T4, PTEN (Mus musculus, UniProt O08586).
T4 construct: endogenous in cells; host or cells: NIH3T3
Put plainly: PTEN preliminary data (western blots). The class given is cell-based. As to the method: (§2) UM-UC-3 cells were treated in exactly the same manner. Cell samples were analysed on Western Blots with PKB antibodies.
as §1
(In general: In western blotting, separated proteins are transferred to a membrane and probed.)

The subject of a further series is NIH3T3 cells. Put plainly: Phalloidin staining (actin re-arrangement, morphology). Type of series: cell-based. Conditions: 0.1 μM, 6 h and 24 h. As for the experimental part:
In order to monitor morphological changes NIH3T3 cells were grown on 8-well chamber slides and incubated with concentrations of bpV(pic) and bpV(phen) between 0.1 and 10 μM for 6 h and 24 h, respectively. Fibroblasts were fixed with 4% para-formaldehyde (PFA), permeabilised with 0.2% Triton and blocked with 10% NCS (newborn calf serum). To stain actin filaments cells were incubated with TRITC-phalloidin (Sigma) (1:1000) for 1 h. Finally, nuclei were DAPI (Sigma) stained and mounted. Morphological analyses were assessed on a microscope using filters for TRITC and DAPI and pictures were captured using a camera.

The subject of series [4] is PKB phosphorylation (pSer473) in NIH3T3 cells. Put plainly: PKB assay: activation of insulin signalling pathway (insulin mimetic property), NIH3T3. The class given is cell-based. The following applies: NIH3T3, 1 μM, 15 min, no insulin. As for the experimental part: (§3) NIH3T3 cells (passage 5-20) were grown in 10% NCS D-MEM (GIBCO BRL) in 6-well plates at 37 C and 5% CO2. Starvation of the cells was carried out over 72 h in D-MEM containing 0.5% NCS. Prior use medium was changed to 0% D-MEM. UM-UC-3 cells which is a PTEN^− bladder tumour cell line (NO 195, No 196) were grown in 10% MEM (GIBCO BRL), starved with 0.5% MEM also for three days and finally incubated with serum free MEM.
Cells were washed once with PBS and lysed using 80 μl SDS-PAGE buffer (250 mM Tris pH 6.8, 20% glycerol, 4% SDS, 0.01% bromphenol blue, 50 mM mercaptoethanol). Samples were boiled for 15 min and stored at −20 C until analysis on Western Blots as described in the last paragraph.
as §1

Series [5] relates to phosphorylation of tyrosine residues in NIH3T3 cells. Put plainly: Phosphotyrosine assay with NIH3T3 cells. Type of series: cell-based. The following applies: 10 μM, 15 min. As for the experimental part:
NIH3T3 cells were grown and starved as described earlier. After 72 h starvation cells were incubated for 15 min with 10% NCS, 50, 10 and […] insulin (Sigma), 10, 1, 0.1 and 0.01 μM bpV(pic) and bpV(phen), respectively. Cell lysates were prepared as described above and all samples were analysed on Western Blots using an anti phospho-tyrosine antibody (Upstate).
as §1

Series [6] deals with T4, PTEN. Put plainly: PKB assay: dose dependence of PTEN inhibition in insulin-stimulated NIH3T3 cells (pSer473 Western blot). Conditions: for increase of PKB phosphorylation in comparison with the control: 20 nM compound, control 0.5 μg/ml insulin. Type of series: cell-based. As for the experimental part:
as §3, §2, §1

The mark [7] stands for this setting: +V compound, read-out: IC50 SopB.
Setting [8] is: +IV compound, read-out: IC50 SopB.

Chain of SopB (O30916 whole entry): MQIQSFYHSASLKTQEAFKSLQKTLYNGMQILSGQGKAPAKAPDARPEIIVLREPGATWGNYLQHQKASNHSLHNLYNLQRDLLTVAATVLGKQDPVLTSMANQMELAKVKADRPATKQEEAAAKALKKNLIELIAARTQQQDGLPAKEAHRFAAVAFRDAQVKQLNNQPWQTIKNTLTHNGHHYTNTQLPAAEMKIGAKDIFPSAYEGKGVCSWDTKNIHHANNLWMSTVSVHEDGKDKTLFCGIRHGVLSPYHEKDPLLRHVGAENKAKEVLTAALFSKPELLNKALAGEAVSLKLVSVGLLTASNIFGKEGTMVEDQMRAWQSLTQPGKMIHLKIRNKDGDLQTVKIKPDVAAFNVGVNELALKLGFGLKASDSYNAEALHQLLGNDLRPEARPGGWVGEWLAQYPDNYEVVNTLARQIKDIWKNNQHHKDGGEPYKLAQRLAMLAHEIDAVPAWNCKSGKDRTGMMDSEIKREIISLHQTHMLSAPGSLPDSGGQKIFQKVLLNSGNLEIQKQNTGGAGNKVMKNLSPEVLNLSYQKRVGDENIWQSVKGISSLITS
T3 sequence (P60484 whole entry): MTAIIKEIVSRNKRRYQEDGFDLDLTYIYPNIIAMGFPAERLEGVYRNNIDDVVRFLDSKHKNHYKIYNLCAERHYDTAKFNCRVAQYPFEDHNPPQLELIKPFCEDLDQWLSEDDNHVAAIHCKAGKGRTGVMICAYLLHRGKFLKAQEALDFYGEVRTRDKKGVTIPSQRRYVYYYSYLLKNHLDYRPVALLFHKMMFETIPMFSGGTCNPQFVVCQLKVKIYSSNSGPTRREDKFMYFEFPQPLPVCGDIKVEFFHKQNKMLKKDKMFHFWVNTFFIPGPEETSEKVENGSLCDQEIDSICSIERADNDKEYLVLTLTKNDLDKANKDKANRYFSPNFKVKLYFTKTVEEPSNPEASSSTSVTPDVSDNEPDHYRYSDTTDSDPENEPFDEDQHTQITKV
T2 sequence (P23467 23-1997): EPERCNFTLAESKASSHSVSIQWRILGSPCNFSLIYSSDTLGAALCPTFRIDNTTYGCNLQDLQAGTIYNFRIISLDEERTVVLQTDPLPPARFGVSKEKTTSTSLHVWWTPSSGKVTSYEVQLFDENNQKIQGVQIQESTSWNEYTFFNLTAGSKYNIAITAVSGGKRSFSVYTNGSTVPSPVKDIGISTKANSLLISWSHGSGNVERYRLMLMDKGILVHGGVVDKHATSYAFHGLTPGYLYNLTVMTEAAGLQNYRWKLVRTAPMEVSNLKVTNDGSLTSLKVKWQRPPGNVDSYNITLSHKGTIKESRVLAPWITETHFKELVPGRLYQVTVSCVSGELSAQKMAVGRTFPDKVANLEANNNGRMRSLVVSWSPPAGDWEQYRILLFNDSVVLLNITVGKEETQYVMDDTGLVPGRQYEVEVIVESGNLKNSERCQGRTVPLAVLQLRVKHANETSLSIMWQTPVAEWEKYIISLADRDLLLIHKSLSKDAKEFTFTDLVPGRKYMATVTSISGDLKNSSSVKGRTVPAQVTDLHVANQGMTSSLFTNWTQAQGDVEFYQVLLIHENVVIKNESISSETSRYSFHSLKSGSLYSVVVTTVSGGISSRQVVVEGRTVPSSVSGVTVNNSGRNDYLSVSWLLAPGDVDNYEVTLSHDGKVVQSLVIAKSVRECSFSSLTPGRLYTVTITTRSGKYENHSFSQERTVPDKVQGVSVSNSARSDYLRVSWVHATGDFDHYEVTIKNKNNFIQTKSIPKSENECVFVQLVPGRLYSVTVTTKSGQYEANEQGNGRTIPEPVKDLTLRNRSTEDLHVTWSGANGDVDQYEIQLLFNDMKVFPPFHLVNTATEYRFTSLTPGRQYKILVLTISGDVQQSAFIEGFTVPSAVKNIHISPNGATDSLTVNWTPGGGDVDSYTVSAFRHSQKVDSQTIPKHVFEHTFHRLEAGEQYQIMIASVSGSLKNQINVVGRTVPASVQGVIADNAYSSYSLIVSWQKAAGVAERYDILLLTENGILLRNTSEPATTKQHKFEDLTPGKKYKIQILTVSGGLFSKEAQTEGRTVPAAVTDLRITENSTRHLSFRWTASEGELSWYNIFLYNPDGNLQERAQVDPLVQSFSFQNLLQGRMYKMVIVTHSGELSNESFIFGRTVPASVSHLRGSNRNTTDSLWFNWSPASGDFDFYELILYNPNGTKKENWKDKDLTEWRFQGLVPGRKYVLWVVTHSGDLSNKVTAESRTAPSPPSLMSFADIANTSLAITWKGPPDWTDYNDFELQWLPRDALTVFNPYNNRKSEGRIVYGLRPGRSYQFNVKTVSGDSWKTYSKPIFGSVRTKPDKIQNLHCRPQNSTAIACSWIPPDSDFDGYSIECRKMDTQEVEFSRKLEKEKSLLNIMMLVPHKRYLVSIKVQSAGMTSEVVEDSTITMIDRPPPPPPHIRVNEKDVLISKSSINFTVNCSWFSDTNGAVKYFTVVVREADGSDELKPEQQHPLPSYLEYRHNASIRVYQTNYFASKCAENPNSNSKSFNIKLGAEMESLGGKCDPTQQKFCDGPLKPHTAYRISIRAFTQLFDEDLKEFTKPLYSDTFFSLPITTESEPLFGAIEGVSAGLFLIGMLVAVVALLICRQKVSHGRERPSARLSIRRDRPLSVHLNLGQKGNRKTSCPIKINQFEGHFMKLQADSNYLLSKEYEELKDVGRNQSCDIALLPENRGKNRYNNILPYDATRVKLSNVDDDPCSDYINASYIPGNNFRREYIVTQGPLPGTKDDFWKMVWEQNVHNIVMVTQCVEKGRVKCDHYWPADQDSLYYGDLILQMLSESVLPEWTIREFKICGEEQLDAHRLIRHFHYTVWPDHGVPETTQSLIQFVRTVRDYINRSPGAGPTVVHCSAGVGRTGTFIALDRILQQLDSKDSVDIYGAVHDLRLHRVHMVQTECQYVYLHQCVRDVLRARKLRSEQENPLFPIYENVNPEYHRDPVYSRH
T4 sequence (O08586 whole entry): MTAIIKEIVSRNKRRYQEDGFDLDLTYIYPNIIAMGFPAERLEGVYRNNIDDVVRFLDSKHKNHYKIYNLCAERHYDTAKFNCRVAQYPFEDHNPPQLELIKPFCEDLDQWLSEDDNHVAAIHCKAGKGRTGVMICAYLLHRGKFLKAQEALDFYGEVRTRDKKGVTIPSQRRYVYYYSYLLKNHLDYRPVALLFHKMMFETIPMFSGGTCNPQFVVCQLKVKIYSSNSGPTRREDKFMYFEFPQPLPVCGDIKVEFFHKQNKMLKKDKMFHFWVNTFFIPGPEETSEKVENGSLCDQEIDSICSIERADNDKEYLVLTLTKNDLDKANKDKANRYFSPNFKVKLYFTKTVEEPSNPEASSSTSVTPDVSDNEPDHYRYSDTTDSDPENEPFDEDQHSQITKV

Turning to `O=c1cc(N2CCOCC2)oc2c(-c3ccccc3)cccc12` [Ly294002, reference compound], the “concentration sufficient to inhibit PKB activation completely” value in series [1] was determined as 5 µM.

`O=C([O][V](=[O])[O]C(=O)c1ccc2ccccc2n1)c1ccc2ccccc2n1` [quinolin4]: the figures for the IC50 on MTM (Compound(+IV)), against SopB and at PTP-β (V(+IV) compounds) were 9260 ± 40 nM, 1960 ± 870 nM and 212000 ± 9400 nM, respectively.

Consider “dipotassium bisperoxo(phenylbiguanide)oxovanadate [pV(phenbig)]”, for which the IC50 against MTM (Compound(+V)) came to 1890 ± 830 nM; at SopB (setting [7]), 798 ± 41 nM; at PTEN [3], 48.5 nM. Also, the “specificity of phosphatase inhibition” value at PTEN [2] was “specifically inhibit PTEN, but not SopB, MTM or PTP”. The “PTEN inhibition, summary in words” value on PTEN [2] is “very good inhibitors”.

On to `O=C([O-])c1ccccn1.O=C([O-])c1ccccn1.[O]=[V+2]` [pic4], for which the IC50 against MTM (Compound(+IV)) was 6350 ± 3920 nM; on SopB (setting [8]), 125 ± 1.65 nM; at PTP-β (V(+IV) compounds), 589000 ± 32900 nM.

In the case of `O=C([O-])c1nccc2ccccc12.[K+].[K+].[O-][O-].[O-][O-].[O]=[V+3]` [pV(isoqu)], the IC50 at MTM (Compound(+V)) came out at 868 ± 187 nM; on SopB (setting [7]), 79.8 ± 9.7 nM; at PTP-β (V(+V) compounds) it was 349000 ± 26500 nM; against PTEN [3] it was 101 nM.

In the case of `O.O.O.OO.OO.[K+].[OH-].[V].c1cnc2c(c1)ccc1cccnc12` [bpV(phen), potassium bisperoxo(1,10-phenanthroline)oxovanadate], the IC50 was found to be 407 ± 38.5 nM against MTM (Compound(+V)), 38 ± 2.4 nM on PTEN [2], 102 nM at SopB (setting [7]) and 275 nM against PTEN [3]. For the same compound, in the series on NIH3T3 cells, the “cellular morphology (actin staining)” value is listed as “remained unchanged”. Further, the “phosphorylated PKB signal” value in series [4] was “no phosphorylation was visible”. Also, in series [5], the tyrosine phosphorylation result is on record as “lower stimulation”.

As for `O=C([O-])c1ncccc1O.O=C([O-])c1ncccc1O.[O]=[V+2]` [OHpic4], the IC50 on MTM (Compound(+IV)) is 4030 ± 40 nM; at SopB (setting [8]) it was 588 ± 163 nM; on PTP-β (V(+IV) compounds), 57500 ± 9400 nM. Further, at PTEN [2], the “PTEN inhibition, summary in words” value was “very good inhibitors”.

Turning to `[K+].[O-][O-].[O-][O-].[O]=[V+3].c1ccc(-c2ccccn2)nc1` [bpV(bipy), potassium bisperoxo (bipyridine) oxovanadate], at PTEN [6], the “increase of PKB phosphorylation in comparison with the control” value is listed as “about 20%”. In addition, in series [4], the “phosphorylated PKB signal” value is listed as “weak signal”. Moreover, at PTP-β (aromatic bpVs, pNPP substrate), the IC50 was determined as 60.3 nM.

Regarding `O=C([O-])c1ccc(O)cn1.[K+].[K+].[O-2].[O-][O-].[O-][O-].[V+5]` [bpV(HOpic), dipotassium bisperoxo(5-hydroxypyridine-2-carboxyl)oxovanadatel], the IC50 on MTM (Compound(+V)) was found to be 346 ± 24.8 nM; on PTEN [2], 14 ± 2.3 nM; at PTEN [6] (NIH3T3, 5 min compound then 0.5 μg/ml insulin 15 min, read-out: IC50 (in vivo PTEN inhibition, densitometry of pSer473 PKB)), 96 nM; on SopB (setting [7]) it was 33.2 ± 6.5 nM; against PTEN [3], 211 nM. The “specificity of phosphatase inhibition” value at PTEN [2] was “specifically inhibit PTEN, but not SopB, MTM or PTP”. The “increase of PKB phosphorylation in comparison with the control” value on PTEN [6] is “about 20%”. The “phosphorylated PKB signal” value in series [4] was “weak signal”.
